For one data set, the system named is Clostridioides difficile. The data set is described as follows: Effect on growth of Clostridium difficile at 0.5 to 100 uM incubated for 24 hrs under anaerobic conditions by spectrophotometry. It counts as functional, organism-based.
For a further data set, the system named is Bacteroides fragilis. The data set is described as follows: Effect on growth of Bacteroides fragilis at 0.5 to 100 uM incubated for 48 hrs under anaerobic conditions by spectrophotometry. It counts as organism-based.
For another data set, the target named is Toxin B (Clostridioides difficile, UniProt P18177). The data set is described as follows: Inhibition of C-terminal 6-His tagged recombinant Clostridium difficile toxin B catalytic fragment (Met1 to Leu543 residues) assessed as reduction in glucosyltransferase domain UDP-glucose hydrolysis activity using UDP-glucose and ADP Alexa633 tracer incubated fore 3 hrs by fluorescence polarization assay.
Chain of Toxin B (P18177 whole entry, the tested form may be a part): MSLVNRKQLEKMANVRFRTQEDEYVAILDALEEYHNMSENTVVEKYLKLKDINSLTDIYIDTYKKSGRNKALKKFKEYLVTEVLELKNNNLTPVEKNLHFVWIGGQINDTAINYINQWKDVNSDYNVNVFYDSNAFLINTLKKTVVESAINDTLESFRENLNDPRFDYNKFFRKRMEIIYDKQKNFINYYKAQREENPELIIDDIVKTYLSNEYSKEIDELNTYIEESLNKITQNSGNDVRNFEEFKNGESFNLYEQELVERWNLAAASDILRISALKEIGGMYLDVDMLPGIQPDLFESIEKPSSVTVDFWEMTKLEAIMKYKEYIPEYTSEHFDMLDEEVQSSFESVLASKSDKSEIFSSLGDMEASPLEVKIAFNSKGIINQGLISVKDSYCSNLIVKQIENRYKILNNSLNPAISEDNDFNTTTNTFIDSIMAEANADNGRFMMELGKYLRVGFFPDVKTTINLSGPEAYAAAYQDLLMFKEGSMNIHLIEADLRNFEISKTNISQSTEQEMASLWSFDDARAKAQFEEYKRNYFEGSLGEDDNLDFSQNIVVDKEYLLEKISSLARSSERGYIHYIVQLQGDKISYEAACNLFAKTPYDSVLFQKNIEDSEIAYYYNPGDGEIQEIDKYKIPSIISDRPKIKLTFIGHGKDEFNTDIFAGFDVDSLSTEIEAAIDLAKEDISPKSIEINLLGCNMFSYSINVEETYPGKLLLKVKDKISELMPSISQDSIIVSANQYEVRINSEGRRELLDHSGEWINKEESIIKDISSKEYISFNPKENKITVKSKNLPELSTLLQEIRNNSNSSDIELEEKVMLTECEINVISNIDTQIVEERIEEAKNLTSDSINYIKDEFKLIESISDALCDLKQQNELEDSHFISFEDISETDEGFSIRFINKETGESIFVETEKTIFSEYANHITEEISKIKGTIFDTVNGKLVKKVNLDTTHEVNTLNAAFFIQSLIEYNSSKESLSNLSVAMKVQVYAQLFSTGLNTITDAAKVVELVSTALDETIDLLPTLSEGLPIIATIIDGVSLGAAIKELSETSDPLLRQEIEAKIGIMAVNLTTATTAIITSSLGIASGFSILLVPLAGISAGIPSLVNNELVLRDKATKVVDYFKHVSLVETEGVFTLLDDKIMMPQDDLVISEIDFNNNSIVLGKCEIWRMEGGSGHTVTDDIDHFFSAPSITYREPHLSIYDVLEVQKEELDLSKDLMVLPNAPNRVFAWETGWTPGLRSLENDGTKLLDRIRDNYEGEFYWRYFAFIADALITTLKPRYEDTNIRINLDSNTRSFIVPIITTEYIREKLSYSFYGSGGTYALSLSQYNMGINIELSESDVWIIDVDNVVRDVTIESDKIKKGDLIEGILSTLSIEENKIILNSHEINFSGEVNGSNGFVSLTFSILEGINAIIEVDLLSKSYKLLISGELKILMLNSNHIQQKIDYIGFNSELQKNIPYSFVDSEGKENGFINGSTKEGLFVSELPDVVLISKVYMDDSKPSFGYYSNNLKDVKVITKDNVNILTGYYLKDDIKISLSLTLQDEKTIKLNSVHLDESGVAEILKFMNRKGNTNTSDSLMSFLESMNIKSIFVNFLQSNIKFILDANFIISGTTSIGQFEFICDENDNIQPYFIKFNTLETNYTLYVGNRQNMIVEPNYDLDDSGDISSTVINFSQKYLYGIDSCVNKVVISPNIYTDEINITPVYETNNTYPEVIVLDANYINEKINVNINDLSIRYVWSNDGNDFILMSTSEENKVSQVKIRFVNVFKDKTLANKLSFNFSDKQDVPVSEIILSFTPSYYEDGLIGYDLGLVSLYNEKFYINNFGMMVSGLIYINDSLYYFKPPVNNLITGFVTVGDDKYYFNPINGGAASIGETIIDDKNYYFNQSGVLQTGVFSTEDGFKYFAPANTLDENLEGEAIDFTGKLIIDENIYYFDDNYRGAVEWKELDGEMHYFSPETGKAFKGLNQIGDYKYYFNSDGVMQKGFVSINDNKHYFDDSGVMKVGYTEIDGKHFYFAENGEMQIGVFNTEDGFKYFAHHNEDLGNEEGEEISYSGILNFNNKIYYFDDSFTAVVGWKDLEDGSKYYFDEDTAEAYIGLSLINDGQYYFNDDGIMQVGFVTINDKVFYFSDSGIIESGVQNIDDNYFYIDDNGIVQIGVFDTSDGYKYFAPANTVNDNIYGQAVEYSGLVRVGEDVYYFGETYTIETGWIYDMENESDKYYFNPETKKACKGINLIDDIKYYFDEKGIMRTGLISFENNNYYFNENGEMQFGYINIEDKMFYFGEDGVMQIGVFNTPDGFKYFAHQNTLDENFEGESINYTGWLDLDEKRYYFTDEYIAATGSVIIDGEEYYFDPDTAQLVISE

In data set [1] the test system is Limosilactobacillus reuteri. The data set is described as follows: Effect on growth of Lactobacillus reuteri at 0.5 to 100 uM incubated for 24 hrs under anaerobic conditions by spectrophotometry. It counts as organism-based.
The next data set concerns Bifidobacterium longum. Briefly: Effect on growth of Bifidobacterium longum at 0.5 to 100 uM incubated for 24 hrs under anaerobic conditions by spectrophotometry. It counts as organism-based.

Calls of active or inactive are those of the source.

Turning to `O=C(O)c1ccc(CN2C(=O)c3ccc(Cl)cc3NC(=O)[C@H]2c2ccccc2)cc1`, in the data set on Clostridioides difficile, the result was inactive. The Activity entry (in the data set with Bacteroides fragilis; in data set [1]; with Bifidobacterium longum) was “Non-Toxic” each time. Besides, the IC50 at Toxin B was greater than 80 µM.

Turning to `Cc1ccc2c(c1)NC(=O)[C@@H](Cc1ccc(Cl)c(Cl)c1)N(Cc1ccc(C(=O)O)cc1)C2=O`, the result with Clostridioides difficile was inactive. Further, the Activity result (with Bacteroides fragilis; in data set [1]; in the data set on Bifidobacterium longum) was “Non-Toxic” in each case. The IC50 at Toxin B came out at 12 µM.

Regarding `CN1C(=O)[C@@H](Cc2cccnc2)N(Cc2ccc(C(=O)O)cc2)C(=O)c2ccc(Cl)cc21`, the outcome in the data set with Clostridioides difficile was inactive. The Activity entry (with Bacteroides fragilis; in data set [1]; with Bifidobacterium longum) was “Non-Toxic” throughout. Moreover, the 50% inhibitory concentration (IC50) on Toxin B is greater than 80 µM.

As for `O=C(O)c1ccc(CN2C(=O)c3ccc(Cl)cc3NC(=O)[C@H]2CCc2ccccc2)cc1`, the result with Clostridioides difficile was inactive. Also, the Activity result (in the data set on Bacteroides fragilis; in data set [1]; in the data set on Bifidobacterium longum) was “Non-Toxic” in each case. Also, the IC50 on Toxin B turned out to be 23 µM.

With `O=C(O)c1ccc(CN2C(=O)c3ccc(Cl)cc3NC(=O)[C@H]2CC2CCCCC2)cc1`, the outcome with Clostridioides difficile was inactive. Further, the Activity result (in the data set on Bacteroides fragilis; in data set [1]; with Bifidobacterium longum) was “Non-Toxic” each time. For the same molecule, on Toxin B, the 50% inhibitory concentration (IC50) was 84 µM.

With `O=C(O)c1ccc(CN2C(=O)c3ccc(Cl)cc3NC(=O)[C@H]2Cc2ccccc2)cc1`, the outcome with Clostridioides difficile was inactive. In addition, the Activity entry (in the data set on Bacteroides fragilis; in data set [1]; in the data set with Bifidobacterium longum) was “Non-Toxic” throughout. At Toxin B, the IC50 came to 6.3 µM.

Take `O=C(O)c1ccc(CN2C(=O)c3ccc(Cl)cc3NC(=O)[C@H]2Cc2cccc(Cl)c2)cc1`: in the data set on Clostridioides difficile, the result was inactive. Also, the Activity result (with Bacteroides fragilis; in data set [1]; with Bifidobacterium longum) was “Non-Toxic” each time. Moreover, the IC50 on Toxin B is 1.6 µM.

For the molecule `O=C(Nc1ccccc1)c1ccc(CN2C(=O)c3ccc(Cl)cc3NC(=O)[C@H]2Cc2cccnc2)cc1`, the outcome in the data set with Clostridioides difficile was inactive. Also, the Activity result (in the data set on Bacteroides fragilis; in data set [1]; with Bifidobacterium longum) was “Non-Toxic” each time. Moreover, the concentration for half-maximal inhibition (IC50) at Toxin B was determined as 22 µM.

In the case of `NC(=O)c1ccc(CN2C(=O)c3ccc(Cl)cc3NC(=O)[C@@H]2Cc2ccc(Cl)c(Cl)c2)cc1`, the outcome in the data set on Clostridioides difficile was inactive. The Activity result (in the data set with Bacteroides fragilis; in data set [1]; with Bifidobacterium longum) was “Non-Toxic” each time. The concentration for half-maximal inhibition (IC50) on Toxin B turned out to be 16 µM.

Turning to `O=C(O)c1ccc(CN2C(=O)c3ccc(Cl)cc3NC(=O)[C@H]2Cc2ccncc2)cc1`, in the data set on Clostridioides difficile, the outcome was inactive. The Activity result (in the data set on Bacteroides fragilis; in data set [1]; in the data set with Bifidobacterium longum) was “Non-Toxic” in each case. In addition, on Toxin B, the IC50 was found to be 18 µM.

For `COC(=O)c1ccc(CN2C(=O)c3ccc(Cl)cc3NC(=O)[C@H]2Cc2cccnc2)cc1`, the result in the data set on Clostridioides difficile was inactive. For the same molecule, the Activity entry (with Bacteroides fragilis; in data set [1]; in the data set on Bifidobacterium longum) was “Non-Toxic” each time. For the same molecule, on Toxin B, the IC50 is greater than 80 µM.

Take `COc1ccc2c(c1)NC(=O)[C@@H](Cc1cccnc1)N(Cc1ccc(C(=O)O)cc1)C2=O`: in the data set with Clostridioides difficile, the outcome was inactive. Further, the Activity result (in the data set with Bacteroides fragilis; in data set [1]; in the data set on Bifidobacterium longum) was “Non-Toxic” throughout. The IC50 at Toxin B was 2.5 µM.

Turning to `O=C(O)c1ccc(CN2C(=O)c3cc(Cl)ccc3NC(=O)[C@H]2Cc2cccnc2)cc1`, in the data set with Clostridioides difficile, the result was inactive. Also, the Activity result (in the data set on Bacteroides fragilis; in data set [1]; in the data set on Bifidobacterium longum) was “Non-Toxic” in each case. In addition, at Toxin B, the IC50 was greater than 80 µM.

On to `Cc1cccc(C[C@@H]2C(=O)Nc3cc(Cl)ccc3C(=O)N2Cc2ccc(C(=O)O)cc2)c1`, for which the outcome with Clostridioides difficile was inactive. Further, the Activity result (in the data set on Bacteroides fragilis; in data set [1]; with Bifidobacterium longum) was “Non-Toxic” in each case. In addition, at Toxin B, the IC50 turned out to be 4.4 µM.

As for `O=C(O)c1ccc(CN2C(=O)c3ccc(Cl)cc3NC(=O)C2Cc2cnccn2)cc1` (racemic), in the data set on Clostridioides difficile, the outcome was inactive. The Activity result (in the data set with Bacteroides fragilis; in data set [1]; with Bifidobacterium longum) was “Non-Toxic” in each case. For the same molecule, at Toxin B, the IC50 is 3.1 µM.

Consider `O=C(O)c1ccc(CN2C(=O)c3ccc(Cl)cc3NC(=O)[C@H]2Cc2ccccc2Cl)cc1`, for which the outcome in the data set with Clostridioides difficile was inactive. Moreover, the Activity entry (with Bacteroides fragilis; in data set [1]; with Bifidobacterium longum) was “Non-Toxic” in each case. Further, the IC50 at Toxin B was found to be 2.3 µM.

Turning to `O=C(O)c1ccc(CN2C(=O)c3cccc(Cl)c3NC(=O)[C@H]2Cc2cccnc2)cc1`, in the data set on Clostridioides difficile, the outcome was inactive. Moreover, the Activity entry (in the data set on Bacteroides fragilis; in data set [1]; in the data set on Bifidobacterium longum) was “Non-Toxic” throughout. Besides, at Toxin B, the IC50 stood at 69 µM.

Take `O=C(Nc1cccnc1)c1ccc(CN2C(=O)c3ccc(Cl)cc3NC(=O)[C@H]2Cc2cccnc2)cc1`: the outcome in the data set on Clostridioides difficile was inactive. For the same molecule, the Activity result (with Bacteroides fragilis; in data set [1]; with Bifidobacterium longum) was “Non-Toxic” throughout. For the same molecule, the IC50 on Toxin B was greater than 80 µM.

As to `O=C(O)c1ccc(CN2C(=O)c3ccc(Cl)cc3NC(=O)[C@@H]2Cc2ccccn2)cc1`, in the data set on Clostridioides difficile, the result was inactive. Moreover, the Activity result (with Bacteroides fragilis; in data set [1]; in the data set on Bifidobacterium longum) was “Non-Toxic” throughout. In addition, at Toxin B, the IC50 came out at 0.5 µM.

For the molecule `O=C(O)c1ccc(CN2C(=O)c3ccc(Cl)cc3NC(=O)[C@@H]2Cc2ccc(Cl)c(Cl)c2)cc1`, in the data set on Clostridioides difficile, the outcome was inactive. For the same molecule, the Activity result (in the data set with Bacteroides fragilis; in data set [1]; in the data set on Bifidobacterium longum) was “Non-Toxic” each time. The IC50 at Toxin B turned out to be 2.1 µM.

Turning to `O=C(Nc1ccncc1)c1ccc(CN2C(=O)c3ccc(Cl)cc3NC(=O)[C@H]2Cc2cccnc2)cc1`, the outcome with Clostridioides difficile was inactive. The Activity entry (in the data set with Bacteroides fragilis; in data set [1]; in the data set with Bifidobacterium longum) was “Non-Toxic” throughout. At Toxin B, the IC50 was greater than 80 µM.

For the molecule `O=C(O)c1ccc(CN2C(=O)c3ccc(Cl)cc3NC(=O)[C@H]2Cc2ccccc2F)cc1`, in the data set on Clostridioides difficile, the result was inactive. Also, the Activity result (with Bacteroides fragilis; in data set [1]; in the data set on Bifidobacterium longum) was “Non-Toxic” each time. Besides, at Toxin B, the IC50 turned out to be 30 µM.

On to `O=C(O)c1ccc(CN2C(=O)c3ccccc3NC(=O)[C@H]2Cc2cccnc2)cc1`, for which the result in the data set with Clostridioides difficile was inactive. Also, the Activity entry (with Bacteroides fragilis; in data set [1]; with Bifidobacterium longum) was “Non-Toxic” each time. At Toxin B, the IC50 was found to be 46 µM.

For the molecule `C[C@@H]1C(=O)Nc2cc(Cl)ccc2C(=O)N1Cc1ccc(C(=O)O)cc1`, the outcome in the data set on Clostridioides difficile was inactive. Moreover, the Activity result (in the data set on Bacteroides fragilis; in data set [1]; in the data set with Bifidobacterium longum) was “Non-Toxic” throughout. Moreover, the IC50 on Toxin B came to 21 µM.

Turning to `Cc1ccc(C[C@@H]2C(=O)Nc3cc(Cl)ccc3C(=O)N2Cc2ccc(C(=O)O)cc2)cc1`, the result with Clostridioides difficile was inactive. The Activity result (with Bacteroides fragilis; in data set [1]; with Bifidobacterium longum) was “Non-Toxic” throughout. In addition, at Toxin B, the IC50 came to 32 µM.

For `O=C(O)c1ccc(CN2C(=O)c3ccccc3NC(=O)[C@H]2Cc2ccc(Cl)c(Cl)c2)cc1`, the result in the data set on Clostridioides difficile was inactive. Also, the Activity entry (in the data set on Bacteroides fragilis; in data set [1]; in the data set on Bifidobacterium longum) was “Non-Toxic” throughout. Also, the IC50 at Toxin B was determined as 2.1 µM.

Regarding `O=C(O)c1ccc(CN2C(=O)c3ccc(Cl)cc3NC(=O)[C@H]2Cc2ccc(Cl)cc2)cc1`, the result in the data set on Clostridioides difficile was inactive. Also, the Activity result (in the data set on Bacteroides fragilis; in data set [1]; in the data set with Bifidobacterium longum) was “Non-Toxic” throughout. In addition, the IC50 on Toxin B came out at 17 µM.

Turning to `CC(C)C[C@@H]1C(=O)Nc2cc(Cl)ccc2C(=O)N1Cc1ccc(C(=O)O)cc1`, the outcome in the data set on Clostridioides difficile was inactive. The Activity entry (with Bacteroides fragilis; in data set [1]; with Bifidobacterium longum) was “Non-Toxic” in each case. At Toxin B, the IC50 is greater than 80 µM.

As for `O=C(O)c1ccc(CN2C(=O)c3ccc(F)cc3NC(=O)[C@H]2Cc2cccnc2)cc1`, in the data set on Clostridioides difficile, the result was inactive. For the same molecule, the Activity result (in the data set on Bacteroides fragilis; in data set [1]; in the data set on Bifidobacterium longum) was “Non-Toxic” in each case. At Toxin B, the IC50 came out at 8.6 µM.

`O=C(O)c1ccc(CN2C(=O)c3ccc(Cl)cc3NC(=O)[C@H]2Cc2nccs2)cc1`: the outcome in the data set on Clostridioides difficile was inactive. Also, the Activity result (in the data set on Bacteroides fragilis; in data set [1]; in the data set on Bifidobacterium longum) was “Non-Toxic” each time. For the same molecule, the IC50 at Toxin B amounted to 2.3 µM.

Regarding `O=C(O)c1ccc(CN2C(=O)c3ccc(Cl)cc3NC(=O)[C@H]2Cc2ccc(O)cc2)cc1`, the result in the data set with Clostridioides difficile was inactive. In addition, the Activity entry (in the data set with Bacteroides fragilis; in data set [1]; in the data set with Bifidobacterium longum) was “Non-Toxic” in each case. Besides, at Toxin B, the IC50 worked out at 2 µM.

Source of the values: ChEMBL document CHEMBL4184209, “Identification and initial optimization of inhibitors of Clostridium difficile (C. difficile) toxin B (TcdB)” (Bioorg Med Chem Lett, 2018).
